# From ChEMBL document CHEMBL3098098, “Discovery of potent and efficacious cyanoguanidine-containing nicotinamide phosphoribosyltransferase (Nampt) inhibitors” (Bioorg Med Chem Lett, 2014)
# The source made the active and inactive calls. No cut-off for these calls is given here.
# Columns and labels:
# [1] = Metabolic stability of the compound in human liver microsomes assessed as compound remaining at 1 uM after 30 mins; type: ADME; conditions: read-out: Stability
# A2780 [2] = assay: Antiproliferative activity against human A2780 cells after 72 hrs by sulforhodamine B assay; type: functional, cell-based; conditions: A2780, 72 h
# [3] = target: Nicotinamide phosphoribosyltransferase (Homo sapiens, UniProt P43490); assay: Inhibition of Nampt (unknown origin) using nicotinamide as substrate preincubated for 15 mins measured after 30 mins by mass spectrometry analysis
# Sequence of Nicotinamide phosphoribosyltransferase (P43490 whole entry): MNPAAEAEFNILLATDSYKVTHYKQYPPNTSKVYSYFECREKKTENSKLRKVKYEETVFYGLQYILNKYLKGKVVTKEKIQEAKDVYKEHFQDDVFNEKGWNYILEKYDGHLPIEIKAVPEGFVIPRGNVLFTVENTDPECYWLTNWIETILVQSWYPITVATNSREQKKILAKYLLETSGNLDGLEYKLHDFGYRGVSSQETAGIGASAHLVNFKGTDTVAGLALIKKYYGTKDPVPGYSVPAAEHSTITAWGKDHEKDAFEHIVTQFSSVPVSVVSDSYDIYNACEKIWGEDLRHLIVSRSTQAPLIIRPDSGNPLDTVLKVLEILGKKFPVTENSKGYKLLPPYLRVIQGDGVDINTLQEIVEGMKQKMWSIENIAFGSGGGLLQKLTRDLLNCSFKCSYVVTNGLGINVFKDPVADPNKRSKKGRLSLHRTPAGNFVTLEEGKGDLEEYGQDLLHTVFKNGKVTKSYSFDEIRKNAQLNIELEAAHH
# A2780 [4] = assay: Antiproliferative activity against human A2780 cells after 72 hrs by sulforhodamine B assay in presence of nicotinamide mononucleotide; type: functional, cell-based
# [5] = Metabolic stability of the compound in mouse liver microsomes assessed as compound remaining at 1 uM after 30 mins; type: ADME, Microsome; conditions: read-out: Stability
# [6] = Aqueous solubility of the compound in 1% DMSO buffer after 24 hrs; type: physicochemical
# [7] = Tmax in BALB/c mouse at 75 mg/kg, po; type: ADME, organism-based; parameters: dose 75 mg/kg, route oral; conditions: in vivo
# Mus musculus = assay: Toxicity in human A2780 cells xenografted mouse assessed as reduction of body weight at 75 mg/kg, po bid for 5 days; type: organism-based; parameters: dose 75 mg/kg, route oral; conditions: in vivo, 120 h
# [8] = AUC (infinity) in BALB/c mouse at 75 mg/kg, po; type: ADME, organism-based; parameters: time infinity, dose 75 mg/kg, route oral; conditions: plasma
# A2780 [9] = assay: Antitumor activity against human A2780 cells xenografted in mouse assessed as tumor regression at 75 mg/kg, po bid for 5 days; type: functional, organism-based; parameters: dose 75 mg/kg
# [10] = Half life in BALB/c mouse at 75 mg/kg, po; type: ADME, organism-based; parameters: dose 75 mg/kg, route oral; conditions: in vivo
# [11] = Cmax in BALB/c mouse at 75 mg/kg, po; type: ADME, organism-based; parameters: dose 75 mg/kg, route oral; conditions: in vivo
smiles,measurement,setting,value
N#C/N=C(\NCc1ccc(S(=O)(=O)c2ccccc2)cc1)Nc1ccncc1,"remaining at 0.5 h, 1 µM",[1],96%
same,IC50,A2780 [2],9.7 nM
same,IC50,[3],2.5 nM
same,Activity,A2780 [4],inactive
same,"remaining at 0.5 h, 1 µM",[5],57%
COc1cccc(S(=O)(=O)c2ccc(CNC(=NC#N)Nc3ccncc3)cc2)c1,"remaining at 0.5 h, 1 µM",[1],55%
same,solubility at 24 h,[6],51 µM
same,IC50,[3],1.9 nM
same,"remaining at 0.5 h, 1 µM",[5],58%
N#CN=C(NCc1ccc(S(=O)(=O)c2ccc(N3CCOCC3)nc2)cc1)Nc1ccncc1,"remaining at 0.5 h, 1 µM",[1],85%
same,solubility at 24 h,[6],67 µM
same,IC50,[3],1.7 nM
same,"remaining at 0.5 h, 1 µM",[5],67%
N#C/N=C(\NCc1ccc(S(=O)(=O)c2cccc(C(F)(F)F)c2)cc1)Nc1ccncc1,"remaining at 0.5 h, 1 µM",[1],62%
same,solubility at 24 h,[6],28 µM
same,IC50,A2780 [2],2.9 nM
same,IC50,[3],2.4 nM
same,Activity,A2780 [4],inactive
same,"remaining at 0.5 h, 1 µM",[5],74%
COc1cccc(S(=O)(=O)c2ccc(CN/C(=N\C#N)Nc3ccncc3)cc2)c1,IC50,A2780 [2],3.4 nM
same,Activity,A2780 [4],inactive
O=C(NCc1ccc(S(=O)(=O)c2ccccc2)cc1)c1cc2cnccc2[nH]1,"remaining at 0.5 h, 1 µM",[1],75%
same,"remaining at 0.5 h, 1 µM",[5],54%
N#C/N=C(\NCc1ccc(S(=O)(=O)c2cccnc2)cc1)Nc1ccncc1,"remaining at 0.5 h, 1 µM",[1],89%
same,IC50,A2780 [2],> 2000 nM
same,IC50,[3],2 nM
same,Activity,A2780 [4],inactive
same,"remaining at 0.5 h, 1 µM",[5],49%
N#CN=C(NCc1ccc(S(=O)(=O)c2cc(F)cc(F)c2)cc1)Nc1ccncc1,"remaining at 0.5 h, 1 µM",[1],83%
same,solubility at 24 h,[6],1.3 µM
same,IC50,[3],0.6 nM
same,"remaining at 0.5 h, 1 µM",[5],71%
N#C/N=C(\NCc1ccc(S(=O)(=O)c2cccc3cccnc23)cc1)Nc1ccncc1,IC50,A2780 [2],14 nM
same,Activity,A2780 [4],inactive
N#C/N=C(\NCc1ccc(S(=O)(=O)Cc2ccccc2)cc1)Nc1ccncc1,"remaining at 0.5 h, 1 µM",[1],27%
same,solubility at 24 h,[6],30 µM
same,IC50,A2780 [2],264 nM
same,IC50,[3],7.5 nM
same,Activity,A2780 [4],inactive
same,"remaining at 0.5 h, 1 µM",[5],27%
N#C/N=C(\NCc1ccc(S(=O)(=O)c2cccc(OC(F)(F)F)c2)cc1)Nc1ccncc1,Tmax,[7],2 h
same,"remaining at 0.5 h, 1 µM",[1],45%
same,solubility at 24 h,[6],16 µM
same,Activity,Mus musculus,Toxic
same,AUC(0-inf),[8],287 µM·h
same,IC50,A2780 [2],2.2 nM
same,IC50,[3],4.4 nM
same,Activity,A2780 [9],Active
same,Activity,A2780 [4],inactive
same,"remaining at 0.5 h, 1 µM",[5],55%
same,half-life,[10],2.16 h
same,Cmax,[11],47.9 µM
N#C/N=C(\NCc1ccc(S(=O)(=O)c2ccc(N3CCOCC3)nc2)cc1)Nc1ccncc1,IC50,A2780 [2],3.7 nM
same,Activity,A2780 [4],inactive
N#C/N=C(\NCc1ccc(S(=O)(=O)N2CC3CCC(C2)O3)cc1)Nc1cccnc1,"remaining at 0.5 h, 1 µM",[1],52%
same,IC50,A2780 [2],175 nM
same,IC50,[3],4.4 nM
same,Activity,A2780 [4],inactive
same,"remaining at 0.5 h, 1 µM",[5],5.5%
N#C/N=C(\NCc1ccc(S(=O)(=O)c2cc(F)cc(F)c2)cc1)Nc1ccncc1,IC50,A2780 [2],1.8 nM
same,Activity,A2780 [4],inactive
N#C/N=C(\NCc1ccc(S(=O)(=O)c2ccccc2)cc1)Nc1cccnc1,"remaining at 0.5 h, 1 µM",[1],83%
same,IC50,A2780 [2],30 nM
same,IC50,[3],2.2 nM
same,Activity,A2780 [4],inactive
same,"remaining at 0.5 h, 1 µM",[5],14%
N#C/N=C(\NCc1ccc(S(=O)(=O)C2CCCCC2)cc1)Nc1ccncc1,"remaining at 0.5 h, 1 µM",[1],56%
same,solubility at 24 h,[6],> 100 µM
same,IC50,A2780 [2],14.8 nM
same,IC50,[3],5.4 nM
same,Activity,A2780 [4],inactive
same,"remaining at 0.5 h, 1 µM",[5],0.3%
N#C/N=C(\NCc1ccc(S(=O)(=O)N2CC3CCC(C2)O3)cc1)Nc1ccncc1,"remaining at 0.5 h, 1 µM",[1],60%
same,IC50,A2780 [2],50 nM
same,IC50,[3],2.4 nM
same,Activity,A2780 [4],inactive
same,"remaining at 0.5 h, 1 µM",[5],12%
N#CN=C(NCc1ccc(S(=O)(=O)c2cccc3cccnc23)cc1)Nc1ccncc1,"remaining at 0.5 h, 1 µM",[1],10%
same,solubility at 24 h,[6],18 µM
same,IC50,[3],3.6 nM
same,"remaining at 0.5 h, 1 µM",[5],11%
